According to patent US20090035345A1, “Nuclear Receptors Agonists for Treatment of Atherosclerosis and/or Related Cardiovascular Disease” (ACADEMISCH MEDISCH CENTRUM, BUREAU, priority 2005, published 2009):

What was measured:
TR3-like factors = conditions: Chintharlapalli et al., J Biol. Chem. 2005; cited from earlier work
human SMCs [1] = assay: DNA synthesis assay ([3H]thymidine incorporation) in FBS-stimulated cultured SMCs; format: cell-based; conditions: for DNA synthesis in SMCs: increasing concentrations of C-DIM
Protocol: (§1) Human SMCs were explanted from umbilical cord arteries. Cells were cultured in DMEM (Invitrogen Life Technology, Breda, The Netherlands) with 10% (v/v) fetal bovine serum (FBS) with penicillin and streptomycin (Invitrogen). Cells were used at passages five to seven. […] To determine cellular viability, cells were washed with PBS and subsequently incubated in medium in the presence of 0.5-mg/ml 3-(4,5-dimethylthiazol-2-yl)-2,5-diphenyltetrazolium bromide (MTT; Sigma Diagnostics, St. Louis). After two hours, medium was discarded, formazan crystals were dissolved in isopropanol and optical density was measured at 590 nm. Apoptosis was induced by incubating cells for 24 hours in medium with 0.25 μM staurosporine (Sigma). Subsequently, SMCs were fixed, stained with Hoechst dye and the relative number of apoptotic nuclei was determined.
SMCs were seeded in 24-well plates at 1−4×10^4 cells per well and reached 60% to 70% confluency after 24 hours. SMCs were made quiescent by incubation for 24 hours in FBS-free medium. 6-MP was dissolved in dimethylsulfoxide and applied one hour before FBS stimulation. SMCs were stimulated for 24 hours with 10% (v/v) FBS and subsequently cells were labeled for 18 hours with 0.25 μCi/well [methyl-3H]thymidine (Amersham Biosciences, Buckinghamshire, UK). Incorporated radioactivity was precipitated for 30 min at 4° C. with 10% (w/v) trichloroacetic acid, washed twice with 5% (w/v) trichloroacetic acid, and dissolved in 0.5 N NaOH (0.5 mL per well). Incorporated [^3H]thymidine was measured by liquid-scintillation counting.
(§2) The following small interfering (si)RNA sequences were used: Nur77 siRNA, 5′-CAG UCC AGC CAU GCU CCU C dTdT-3′, as described previously^20, and control siRNA, 5′-CAG ACG AGC CUU GCU CGU C dTdT-3′ (Ambion Inc., Austin, Tex.). Five μg of siRNA was transfected into 0.5−1×10^6 SMCs, using Nucleofector reagent for SMCs (Amaxa) as per the manufacturer's recommendations. Total mRNA was isolated five days after transfection, using the absolutely mRNA miniprep kit (Stratagene, La Jolla, Calif.). Subsequent cDNA synthesis was performed using the iScript cDNA synthesis kit (Biorad, Hercules, Calif.). Real-time polymerase chain reaction (PCR) was performed using SYBR green mix (Biorad) in the MyIQ System (Biorad). Primers for Nur77 were as follows: (forward) 5′-[…]-3′ and (reverse) 5′-[…]-3′. As a control for equal amount of first strand cDNA in different samples we corrected for Ribosomal Phosphoprotein (P0) mRNA levels, which were determined with the following primers (forward) 5′-[…]-3′ and (reverse) 5′-[…]-3′.
as §2, with “iscript” for “iScript”

human SMCs [2] = assay: SMC viability by MTT assay; format: cell-based; conditions: quiescent SMCs, 24 hours
Protocol: as §1

human SMCs [3] = assay: Apoptosis of SMCs, Hoechst staining of nuclei; format: cell-based; conditions: 24 hours
Protocol: as §1

Row | Compound | activity of TR3-like factors (TR3-like factors) | effectiveness in inhibiting DNA synthesis compared with the other C-DIMs (human SMCs [1]; serum, increasing concentrations) | DNA synthesis in SMCs (human SMCs [1]; serum) | inhibition of DNA synthesis (human SMCs [1]; SMCs transfected with Nur77 (TR3)-specific siRNA) [%] | inhibition of DNA synthesis (human SMCs [1]; SMCs transfected with control siRNA) [%] | cellular viability / cytotoxicity (MTT) (human SMCs [2]) | reduction of number of viable cells (MTT) (human SMCs [2]) [%] | induction of apoptosis (human SMCs [3]; SMCs, staurosporine 0.25 μM) | apoptosis (apoptotic nuclei) (human SMCs [3]; quiescent SMCs)
1 | c1ccc(C(c2c[nH]c3ccccc23)c2c[nH]c3ccccc23)cc1 [C-DIM-H] | increase the activity of TR3-like factors | less effective | inhibit DNA synthesis in SMCs dose dependently |  |  |  |  |  | 
2 | COc1ccc(C(c2c[nH]c3ccccc23)c2c[nH]c3ccccc23)cc1 [C-DIM-OCH3] | increase the activity of TR3-like factors |  | inhibit DNA synthesis in SMCs dose dependently | 40.1 | 49.7 |  |  |  | 
3 | FC(F)(F)c1ccc(C(c2c[nH]c3ccccc23)c2c[nH]c3ccccc23)cc1 [C-DIM-CF3] | increase the activity of TR3-like factors |  | inhibit DNA synthesis in SMCs dose dependently |  |  |  |  |  | 
4 | CN[C@@H]1C[C@H]2O[C@@](C)([C@@H]1OC)n1c3ccccc3c3c4c(c5c6ccccc6n2c5c31)C(=O)NC4 [staurosporine] |  |  |  |  |  | reduces cell viability | 35 | induces apoptosis | 50%±4%
